Read-outs that look alike come from different tables or passages of the source.

Data set [1] has as its system HT29-Luciferase expressing cells. The data set is described as follows: Experimental colorectal cancer metastasis to the liver (HT29-Luciferase cells injected into spleen, IVIS imaging). The data set is classed as in vivo, NOD/SCID mice. The note with it: single agent; JMF3086 oral 5 days/week, oxaliplatin or irinotecan i.p. once a week, two weeks; FIGS. 2B and 2C.
Description: Seven-week-old female NOD/SCID mice were obtained from the National Laboratory Animal Center. The mice were anesthetized by continuous flow of 2-3% isoflurane. To generate liver metastases derived from human colorectal cancer cells in mouse models, HT29-Luciferase expressing cells (1×10^6) were suspended in 100 μl PBS and injected into the spleen of mice. After one-week recovery, the mice were randomized into vehicle and treatment group. […] Mice were then given endotoxon-free luciferse substrate and photographed by IVIS imaging system (Xenogen) once a week. Tumors in spleen and liver were collected and weighed after sacrificed.
In another data set the test system is A549-Luc cells. The experiment in a line: Orthotopic lung cancer model (A549-Luc, IVIS imaging). The data set is classed as in vivo, NOD/SCID mice. As to conditions: single agent; JMF3086 oral 5 days/week or cisplatin i.p. once a week, two weeks; FIG. 3B. On the procedure:
In this Example, we use A549 cells [non-small cell lung cancer cell line with KRAS mutations (EGFR wild-type)] to establish the orthotopic lung cancer models. Seven-week-old male NOD/SCID mice were anesthetized by continuous flow of 2-3% isoflurane. A549-Luc cells (2×10^6) suspended in 40 μl of PBS were injected percutaneously into the right lung of the mice using 500 μl Gas-Tight syringes with 27G top winged infusion set. These mice were then given endotoxon-free luciferse substrate and photographed using IVIS-200 imaging system once a week. When lung tumor nodules were detected, the mice were oral administration of JMF3086 (5 days/week), intraperitoneally administered cisplatin (once a week) or a combination of JM3086 and cisplatin for additional two weeks (FIG. 3A).

The test system of data set [2] is various human cancer cell lines. The data set is described as follows: Cell viability by MTT cell proliferation assay. The data set is classed as cell-based. On the procedure: Human […] cancer cells (Hela) and breast cancer cells (MD-MBA-231, MCF7) were seeded at 3000 cells/well in 96-well plates and maintained for 14-16 hours, then treated with JMF3086 or gemcitabine or both. After 72 hours, cells were washed with PBS then added medium containing MTT reagent (Sigma) at a final concentration of 0.5 mg/ml for 4 hours. Then, the medium was replaced with 200 μl of DMSO for 30 minutes, and using an ELISA reader (570 nm) to get the absorbance density values. The 50% of inhibition concentration (IC50) of death cells was calculated.
Effect of three 3,5,N-trihydroxy-alkanamide derivatives, JMF3086, (3R,5R)-7-{(1S,2S,6R,8S,8aR)-hexahydro-2,6-dimethyl-8-[2-dimethylbutyryloxy]naphthalenyl}-3,5-dihydroxy-N-hydroxyheptanamide (also referred to as JMF3171), and (3R,5R)-7-{[2-(4-fluoro-phenyl)-5isopropyl-3-phenyl-4-phenylcarbamoylpyrrol-1-yl]-3,5-dihydroxy-N-hydroxyheptanamide (also referred to as JMF3173) and the corresponding statins on the cell viability of various human cancer cell lines was determined by cell proliferation assay as described in Example 4. Specifically, cancer cells were treated with various concentrations of test compounds for 72 hours, and cell viability was measured by MTT assay. The half maximal inhibitory concentration (IC50) values for individual cell line were calculated.
In general terms: Tetrazolium dyes change colour on reduction, which living cells bring about.

The test system of data set [3] is H3K27-Ac binding to gene promoters in HCT116. The experiment in a line: ChIP-on-chip assay of H3K27-Ac in HCT116 cells. In kind it is cell-based, human. As to the method:
(§1) Colorectal cancer cells (HCT116) were treated with 30 μM JMF3086 for 24 hours, ChIP assays using control Rabbit IgG (sc-2027; Santa Cruz) or anti-H3K27-ac antibody (#4353; Cell Signaling) were performed as previously described (14).
ChIP-on-chip assays were performed in the Microarray and Gene Expression Analysis Core Facility of the National Yang-Ming University VGH Genome Research Center in Taiwan using the SurePrint G3 Human Promoter 1×1M Kit (Agilent Technologies) after DNA was further purified through phenol/chloroform/isoamyl alcohol extraction and ethanol precipitation. Genes with two-fold down-regulation or up-regulation of H3K27-Ac in log-ratio after JMF 3086 treatment were regarded as significance.

The subject of data set [4] is bindings of acetyl-H3K27, CBP, HDAC1 and HDAC3 to promoter. The experiment in a line: Quantitative ChIP (qChIP) assay of promoter binding in HCT116 cells. In kind it is cell-based, human. As to conditions: FIG. 5D. On the procedure: FIGS. 5A to 5D show genome-wide analysis of target genes in 3,5,N-trihydroxy-alkanamide derivative-treated colorectal cancer cells. […] Ingenuity Pathways Analysis (IPA) analysis predicted that the genes associated with apoptosis were regulated by NR3C1. P=4.30E-37. […] The molecular network has a P-score (−log10 (p-value)) of 48. […] Data were analyzed by the Q-PCR and plotted as percent (%) of input DNA. *P<0.05, **P<0.01 versus basal, two-sided Student t test.
as §1
To further investigate these differential effects of JMF3086, the bindings of acetyl-H3K27, CBP, HDAC1 and HDAC3 to promoter were examined by quantitative ChIP (qChIP) assays. JMF3086 reduced the bindings of acetyl-H3K27 and CBP to the promoters of TNF-α, CD166, COX-2, BCL2, CXCL1, CXCL2, EpCAM, CD44, Cyclin D1 and MCL1, but increased those of HDAC1 and HDAC3 to the promoters (FIG. 5D). In contrast, JMF3086 increased the bindings of acetyl-H3K27 and CBP to the promoters of TIMP3, BMP2 and p53 but decreased those of HDAC1 and HDAC3 to their promoters (FIG. 5D).

The test system of a further data set is AOM/DSS-induced CRC. The data set is described as follows: Animal model of AOM/DSS-induced CRC. As to conditions: single agent; JMF3086 25 mg/kg oral 5 days/week or oxaliplatin 5 mg/kg i.p. once a week, two weeks; FIG. 1B. In kind it is in vivo, male C57BL/6 mice. As to the method: FIGS. 1A and 1B show the effect of a 3,5,N-trihydroxy-alkanamide derivative, JMF3086, combined with oxaliplatin on colitis-induced colorectal cancer in vivo. Mice were intraperitoneally injected with AOM (12.5 mg/kg) and maintained for 7 days, then subjected to 3 cycles of DSS treatment (1 cycle representing 5 days of 3.5% DSS followed by 14 days of H2O). […] Scale bars: 1 mm **P<0.01 versus vehicle.
AOM in conjunction with the additional DSS inflammatory stimulus results in tumor development that is restricted to the colon in mice (11, 12). This model is widely utilized to recapitulate human colorectal cancer because it results in inflammation and ulceration of the entire colon, similar to what is observed in patients (12). CRC was induced in male C57BL/6 mice via the intraperitoneal injection of AOM (12.5 mg/kg) while the mice were maintained with a regular diet and drinking water for 7 days and then subjecting to 3 cycles of DSS treatment, with each cycle consisting of the administration of 3.5% DSS for 5 days followed by a 14-day recovery period with regular water (FIG. 1A). […]

For data set [5], the system named is angiogenesis (neovessel formation in matrigel plugs). The data set is described as follows: Subcutaneous matrigel plug angiogenesis assay with conditioned medium of hypoxic HCT116 cells. The data set is classed as in vivo, nude mice. The note with it: HCT116 treated with 30 μM JMF3086 for 20 hours, hypoxia 4 hours; plugs after 14 days; FIG. 2F. On the procedure:
Angiogenesis is an essential step of tumor growth and metastasis (13). To determining the effect of JMF3086 on angiogenesis, HCT116 cells treated with 30 μM JMF3086 for 20 hours were exposed to hypoxia for 4 hours, then conditional medium was collected and subcutaneous matrigel plug assay was conducted by injecting of 75 μl conditional medium mixed with 425 μl matrigel and 50 U heparin/ml into nude mice (5 mice/group). Mice were sacrificed and dissected after 14 days. Matrigel plug retrieved from mice were photographed. Quantification of neovessel formation in matrigel plugs were estimated using Drabkin reagent kit 525.

Data set [6] relates to colorectal cancer cells (HCT116). The data set is described as follows: Experimental colorectal cancer metastasis to the lung (HCT116 injected via tail vein). The data set is classed as in vivo, nude mice. As to conditions: JMF3086 100 mg/kg; FIG. 2E. On the procedure: Besides, to examine the anti-metastatic activity of JMF3086, colorectal cancer cells (HCT116) were intravenously injected into nude mice via the tail vein (FIG. 2D). JMF3086 (100 mg/kg) reduced lung tumor nodules by macroscopic observation (FIG. 2E), indicating its inhibition on lung metastasis.

Where [7] appears, read: HCT116, 30 μM, 24 hours, FIG. 5C.

On to `CCC(C)C(=O)O[C@H]1C[C@@H](C)C=C2C=C[C@H](C)[C@H](CC[C@@H](O)C[C@@H](O)CC(=O)NO)[C@H]21` (stereo partly drawn) [JMF3086, (3R,5R)-7-{(1S,2S,6R,8S,8aR)-hexahydro-2,6-dimethyl-8-[2-methylbutyryloxy]naphthalenyl}-3,5-dihydroxy-N-hydroxyheptanamide], for which the “liver metastasis (luciferase activity, IVIS)” value (shortened to “liver metastasis”) in data set [1] is “modestly inhibited”. Further, the “lung cancer development (luciferase activity, IVIS)” value in the data set with A549-Luc cells was “ineffectively inhibited”. Also, the “cytotoxicity / cell viability” value in data set [2] is on record as “cytotoxic”. For the same molecule, in data set [3] (HCT116, 30 μM JMF3086, 24 hours), the “number of genes with altered binding of H3K27-acetylation” value is given as “more than 10,000 genes”. Moreover, in data set [3] (HCT116, 30 μM, 24 hours), the “mRNA expression of genes of inflammation and proliferation, stemness of cancer, and anti-apoptosis” value was “reduced”; the “mRNA expression of tumor suppressors” value was “increased”. For the same molecule, in data set [3] (setting [7]), the “binding of H3K27-Ac to the gene promoters of inflammation and proliferation, stemness of cancer, and anti-apoptosis” value is reported as “inhibited”; the “binding of H3K27-Ac to the gene promoters of tumor suppressors” value was “increased”. In addition, in data set [4], the “bindings of HDAC1 and HDAC3 to the promoters of TIMP3, BMP2 and p53” value is “decreased”; the “bindings of HDAC1 and HDAC3 to the promoters of TNF-α, CD166, COX-2, BCL2, CXCL1, CXCL2, EpCAM, CD44, Cyclin D1 and MCL1” value is listed as “increased”; the “bindings of acetyl-H3K27 and CBP to the promoters of TIMP3, BMP2 and p53” value was “increased”; the “bindings of acetyl-H3K27 and CBP to the promoters of TNF-α, CD166, COX-2, BCL2, CXCL1, CXCL2, EpCAM, CD44, Cyclin D1 and MCL1” value is reported as “reduced”. Also, the “number of tumors and sizes” value in the data set on AOM/DSS-induced CRC is reported as “modestly reduced”. In addition, the “angiogenesis induced by conditioned medium from HCT116 cells under hypoxia (matrigel plug)” value in data set [5] was “inhibited”. Also, in data set [6], the “lung tumor nodules by macroscopic observation” value is given as “reduced”.
As for `CCC(C)(C)C(=O)O[C@H]1C[C@@H](C)C=C2C=C[C@H](C)[C@H](CC[C@@H](O)C[C@@H](O)CC(=O)NO)[C@H]21` [JMF3171, (3R,5R)-7-{(1S,2S,6R,8S,8aR)-hexahydro-2,6-dimethyl-8-[2-dimethylbutyryloxy]naphthalenyl}-3,5-dihydroxy-N-hydroxyheptanamide], in data set [2], the “cytotoxicity / cell viability” value is on record as “cytotoxic”.
`CC(C)c1c(C(=O)Nc2ccccc2)c(-c2ccccc2)c(-c2ccc(F)cc2)n1CC[C@@H](O)C[C@@H](O)CC(=O)NO` [JMF3173]: the “cytotoxicity / cell viability” value in data set [2] (CRC and various cancer cell lines, 72 hours, MTT, FIG. 4) is given as “cytotoxic”.
Consider `N.N.[Cl][Pt][Cl]` [cisplatin, reference compound], for which, in the data set with A549-Luc cells, the “lung cancer development (luciferase activity, IVIS)” value is given as “ineffectively inhibited”.
On to `CCc1c2c(nc3ccc(OC(=O)N4CCC(N5CCCCC5)CC4)cc13)-c1cc3c(c(=O)n1C2)COC(=O)[C@]3(O)CC` [irinotecan], for which the “liver metastasis” value in data set [1] is “modestly inhibited”.
Turning to `O=C1[O][Pt]2([NH][C@@H]3CCCC[C@H]3[NH]2)[O]C1=O` [oxaliplatin, reference compound], the “liver metastasis” value in data set [1] is on record as “modestly inhibited”. Moreover, in the data set with AOM/DSS-induced CRC, the “number of tumors and sizes” value is recorded as “modestly reduced”.

(Values after patent US20170273921A1, “3,5,N-TRIHYDROXY-ALKANAMIDE OR 3,5,N-TRIHYDROXY-6-ALKENAMIDE DERIVATIVE ALONE OR IN COMBINATION WITH CHEMOTHERAPEUTIC AGENT FOR TREATING CANCER” (National Taiwan University, priority 2014, published 2017).)
